From ChEMBL document CHEMBL3217483, “Developing novel non-hydroxamate histone deacetylase inhibitors: the chelidamic warhead” (2012)
Activity calls are given as the source filed them. The calls are words filed in the database; no cut-off is given here.

What was measured:
[1] = biological target: T1, Histone deacetylase (Homo sapiens) (UniProt Q13547+O15379+Q9UBN7+Q92769+Q9UQL6+Q8WUI4+Q9BY41+Q96DB2+P56524+Q9UKV0+Q969S8); test: Inhibition of HDAC in human U937 cells assessed as slight increase in alpha tubulin acetylation at 50 uM after 24 hrs by western blot analysis; format: cell-based; settings: U-937
[2] = biological target: T1, Histone deacetylase (Homo sapiens); test: Inhibition of HDAC in human U937 cells assessed as slight increase in histone H3 acetylation at 50 uM after 24 hrs by western blot analysis; format: cell-based; settings: U-937
U-937 [3] = test: Cell cycle arrest in human U937 cells assessed as block in S phase at 50 uM after 30 hrs by propidium iodide staining based flow cytometry; format: functional
U-937 [4] = test: Induction of apoptosis in human U937 cells after 30 hrs by caspase 3-7 activation method based FACS analysis; format: functional, cell-based
U-937 [5] = test: Induction of apoptosis in human U937 cells at 50 uM after 30 hrs by caspase 3-7 activation method based FACS analysis; format: functional
[6] = biological target: T1, Histone deacetylase (Homo sapiens); test: Inhibition of HDAC in human U937 cells assessed as increase in alpha tubulin acetylation at 50 uM after 24 hrs by western blot analysis; format: cell-based; settings: U-937
[7] = biological target: T1, Histone deacetylase (Homo sapiens); test: Inhibition of HDAC in human U937 cells assessed as increase in histone H3 acetylation at 50 uM after 24 hrs by western blot analysis; format: cell-based; settings: U-937
U-937 [8] = test: Induction of granulocytic differentiation in human U937 cells assessed as CD11c positive/propidium iodide negative cells at 50 uM after 30 hrs by FACS analysis; format: functional
U-937 [9] = test: Induction of granulocytic differentiation in human U937 cells assessed as CD11c positive/propidium iodide negative cells after 30 hrs by FACS analysis; format: functional, cell-based

| inhibition [1] | inhibition [2] | inhibition [6] | inhibition [7] | SMILES | Activity (U-937 [3]) | Activity (U-937 [4]) | Activity (U-937 [5]) | Activity (U-937 [8]) | Activity (U-937 [9]) |
| --- | --- | --- | --- | --- | --- | --- | --- | --- | --- |
| inactive | inactive |  |  | COC(=O)c1cc(OCCCSc2nc(-c3ccccc3)cc(=O)[nH]2)cc(C(=O)OC)n1 |  |  |  |  |  |
|  |  | Active | Active | COC(=O)c1cc(OCCCCSc2nc(-c3ccccc3)cc(=O)[nH]2)cc(C(=O)OC)n1 | <=50% | Dose-dependent effect | <=50% |  |  |
| inactive | inactive |  |  | COC(=O)c1cc(OCCCCCCCCOc2ccc(NC(=O)Cc3ccccc3)cc2)cc(C(=O)OC)n1 | Active |  |  |  |  |
| inactive | inactive |  |  | COC(=O)c1cc(OCCOc2ccc(NC(=O)Cc3ccccc3)cc2)cc(C(=O)OC)n1 | Active |  |  |  |  |
| inactive | inactive |  |  | COC(=O)c1cc(OCCCCC(=O)Nc2ccccc2)cc(C(=O)OC)n1 | Active |  |  |  |  |
| inactive | inactive |  |  | COC(=O)c1cc(OCCCCCCCOc2ccc(NC(=O)Cc3ccccc3)cc2)cc(C(=O)OC)n1 | Active |  |  |  |  |
| inactive | inactive |  |  | O=C(O)c1cc(OCCSc2nc(-c3ccccc3)cc(=O)[nH]2)cc(C(=O)O)n1 | inactive |  |  |  |  |
| inactive | inactive |  |  | COC(=O)c1cc(OCCCOc2ccc(NC(=O)Cc3ccccc3)cc2)cc(C(=O)OC)n1 | Active |  |  |  |  |
| inactive | inactive |  |  | O=C(O)c1cc(OCCCSc2nc(-c3ccccc3)cc(=O)[nH]2)cc(C(=O)O)n1 | inactive |  |  |  |  |
| inactive | inactive |  |  | O=C(O)c1cc(OCCCCCSc2nc(-c3ccccc3)cc(=O)[nH]2)cc(C(=O)O)n1 | inactive |  |  |  |  |
| inactive | inactive |  |  | O=C(O)c1cc(OCCCCSc2nc(-c3ccccc3)cc(=O)[nH]2)cc(C(=O)O)n1 | inactive |  |  |  |  |
|  |  | Active | Active | COC(=O)c1cc(OCCCCCSc2nc(-c3ccccc3)cc(=O)[nH]2)cc(C(=O)OC)n1 | <=50% | Dose-dependent effect | <=50% |  |  |
| inactive | inactive |  |  | COC(=O)c1cc(OCCCCCOc2ccc(NC(=O)Cc3ccccc3)cc2)cc(C(=O)OC)n1 | Active |  |  |  |  |
| inactive | inactive |  |  | COC(=O)c1cc(OCc2ccc(NC(=O)Cc3ccccc3)cc2)cc(C(=O)OC)n1 | Active |  |  |  |  |
| inactive | inactive |  |  | COC(=O)c1cc(Oc2ccc(NC(=O)Cc3ccccc3)cc2)cc(C(=O)OC)n1 | Active |  |  | <=40% | Dose-dependent effect |
|  |  | Active | Active | COC(=O)c1cc(OCCSc2nc(-c3ccccc3)cc(=O)[nH]2)cc(C(=O)OC)n1 | <=50% | Dose-dependent effect | <=50% |  |  |
| inactive | inactive |  |  | COC(=O)c1cc(OCCCCOc2ccc(NC(=O)Cc3ccccc3)cc2)cc(C(=O)OC)n1 | Active |  |  |  |  |
| inactive | inactive |  |  | COC(=O)c1cc(OCCCCCCOc2ccc(NC(=O)Cc3ccccc3)cc2)cc(C(=O)OC)n1 | Active |  |  |  |  |
